From PubChem BioAssay (NCI)
Where “and” joins values, the source holds several entries; their conditions need not be identical. Identical values can stand only once.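 Exposure lasted 48 hours, with cells grown in 96-well plates and compounds tested at five concentrations. GI50 is the concentration that inhibits growth by half. At the TGI there is no net growth.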

Assays:
Experiment in all cases: NCI-60 cell line screen, 48 h
[1] = test system: HCC-2998 colon
[2] = test system: UACC-62 melanoma
[3] = test system: SNB-75 CNS
[4] = test system: SF-295 CNS
[5] = test system: HCT-15 colon
[6] = test system: SF-268 CNS
[7] = test system: ACHN renal
[8] = test system: MDA-MB-435
[9] = test system: 786-0 renal
[10] = test system: CAKI-1 renal

SMILES | GI50 [1] [µM] | TGI [1] | GI50 [2] [µM] | TGI [2] | GI50 [3] [µM] | TGI [3] | GI50 [4] [µM] | TGI [4] | GI50 [5] [µM] | TGI [5] | GI50 [6] [µM] | TGI [6] | GI50 [7] [µM] | TGI [7] | GI50 [8] [µM] | TGI [8] | GI50 [9] [µM] | TGI [9] | GI50 [10] [µM] | TGI [10]
ClCc1cccc(Cn2cnc3c(NC45CC6CC(CC(C6)C4)C5)ncnc32)c1 | 16.7 | 32.2 µM | 16.3 | 36.5 µM | 17.4 | 43.1 µM | 15.9 | 33.3 µM | 20.4 | 47.5 µM | 12 | 40.5 µM | 15.4 | 30.5 µM | 13.4 | 29.8 µM | 3.43 | 25.8 µM | 16.8 | 33.2 µM
CC(C)(C#N)c1cc(Cn2cncn2)cc(C(C)(C)C#N)c1 | > 10000 | > 10000 µM | 768 | > 10000 µM | > 10000 | > 10000 µM | 299 | > 10000 µM | > 10000 | > 10000 µM | > 10000 | > 10000 µM | – | – | > 10000 | > 10000 µM | 892 | > 10000 µM | > 10000 | > 10000 µM
COc1ccc(N2C(=O)CC(Cl)C2=O)cc1 (configuration not stated) | – | 50.6 µM | – | 46.5 µM | – | > 100 µM | – | – | – | 33.2 µM | – | > 100 µM | – | 31.7 µM | – | > 100 µM | – | 32 µM | – | –
CC1=C2[C@@H](CC1)[C@]1(C)O[C@@](C3CCCCC3)(C[C@H]1OC(=O)CO)[C@H]2OC(=O)/C=C/c1ccccc1 | 6.3 | 18.4 µM | 9.82 | 25.8 µM | 7.94 | 34.8 µM | 6.45 | 19 µM | 5.23 | 15.7 µM | 1.02 | 17.6 µM | 0.0331 | 4.25 µM | 8.65 | 23.6 µM | 1.48 | 17.6 µM | 5.92 | 22 µM
COc1cc(Nc2nccc(Nc3ccc4c(C)[nH]nc4c3)n2)cc(OC)c1OC | 3.17 | 8.46 µM | 1.08 | 4.82 µM | 0.486 | 3.22 µM | 2.66 | 9.77 µM | 2.84 | > 25 µM | 2.42 | 7.89 µM | 1.9 | > 25 µM | 0.666 | 3.09 µM | 2.93 | 9.7 µM | 1.05 | 4.62 µM
CC(=O)c1c(C)[nH]c(-c2nc3ccc(N4CCN(C)CC4)cc3[nH]2)c1-c1ccc(OCC2CCOCC2)cc1 | 0.766 | 3.31 µM | 0.172 | 11.2 µM | 0.0365 | 0.887 µM | 2.67 | 15.3 µM | 0.456 | 5.8 µM | 3.52 | 20.1 µM | 0.777 | 12.4 µM | 0.477 | 12.2 µM | 1.31 | 14.5 µM | 0.326 | 12.6 µM
CCN(CC)CCCC(C)Nc1c2ccc(Cl)cc2nc2ccc(OC)cc12 (configuration not stated) | – | 2.9 µM and 2.69 µM | – | 3.29 µM and 3.4 µM | 2.35 | 6.66 µM and 3.05 µM | 1.55 | 3.51 µM and 2.4 µM | 1.61 | 7.18 µM and 5.67 µM | – | 5.03 µM and 7.68 µM | 1.42 | 5.15 µM and 9.77 µM | – | 3.08 µM and 2.79 µM | 1.88 | 4.15 µM and 4.77 µM | 1.99 | 4.37 µM and 4.5 µM
COc1cc(/C=C/C(=O)CC(=O)/C=C/c2cc(OC)c(OC)c(OC)c2)cc(OC)c1OC | 15.9 | > 100 µM | 3.17 | 13.4 µM | 3.89 | 50.5 µM | 3.16 | 17.2 µM | 3.32 | 12.7 µM | 8.23 | > 100 µM | 3.95 | 14.1 µM | 2.52 | 7.23 µM | 4.05 | 17.6 µM | 3.27 | 16.5 µM
CCN(CC)CC(O)CNc1ccc(NCC2CO2)c2c1C(=O)c1ccccc1C2=O (configuration not stated) | 0.587 | 2.77 µM | 0.426 | 2.3 µM | – | 4.29 µM | – | 4.6 µM | 0.417 | 6.35 µM | – | 0.683 µM | 0.0514 | 0.448 µM and 0.751 µM | 0.133 | 0.394 µM | 0.374 | 1.15 µM | 0.757 | 2.59 µM
CC(=O)Nc1ccc(C(=O)NN2C(=O)C(Cl)C2c2ccc(Cl)cc2)cc1 (configuration not stated) | – | > 100 µM | – | > 100 µM | – | 30.9 µM | – | 44.7 µM | – | > 100 µM | – | > 86.3 µM | – | > 100 µM | – | > 100 µM | – | 40.3 µM | – | –
CCOC(=O)C(Cc1c[nH]c2ccc(N)cc12)(NC(C)=O)C(=O)OCC | > 1000 | > 1000 µM | > 1000 | > 1000 µM | > 1000 | > 1000 µM | > 1000 | > 1000 µM | > 1000 | > 1000 µM | > 1000 | > 1000 µM | > 1000 | > 1000 µM | > 1000 | > 1000 µM | > 1000 | > 1000 µM | – | –
CC(C)c1ccc(C(=O)Nc2nc3ccc(O)cc3s2)cc1 | 0.371 | 1.81 µM | 0.124 | > 100 µM | 9.18 | 73.2 µM | – | – | 0.274 | > 100 µM | 4.06 | > 100 µM | 0.304 | > 100 µM | 0.443 | > 100 µM | 0.866 | 6.09 µM | 0.845 | > 100 µM
Cc1cc(I)cc(CN(C)CCCN2CCSCC2)c1O | 17.5 | 32.5 µM | 32 | > 100 µM | 30.6 | > 100 µM | – | – | 17.8 | 37.2 µM | 28.4 | > 100 µM | 41 | > 100 µM | 23.2 | 57.5 µM | 21.2 | 53.3 µM | 20 | 40.7 µM
